Where two headings read alike, the source gives them in different places.
What was measured:
[1] = Cell viability by CCK-8, HEK-Blue hTLR4 cells; type: cell-based; settings: human
Experimental: (§1) The viability of HEK-Blue^TM hTLR4, […], and THP-1 cells was evaluated using the Dojindo Cell Counting Kit-8 (CCK-8) according to the manufacturer’s instructions. The viability of HEK-Blue^TM hTLR4 and THP-1 cells was assessed under identical conditions to the corresponding assay treatments. HEK-Blue^TM hTLR4 cells (2 × 10^4 cells/well) were seeded in 96-well plates and serum-starved for 24 h at 37 °C in a 5% CO2 atmosphere. After incubation, the culture medium was aspirated, and the cells were washed with saline. High-glucose D-MEM supplemented with 0.1% FBS and 1% penicillin–streptomycin was added and pretreated with or without the 17 limonoids at a concentration of 20 µM for 1 h, followed by LPS addition at a concentration of 10 ng/mL. After 18 h of incubation, a 10% (v/v) CCK-8 solution was added to each well and incubated at 37 °C for 1 h, and cell viability was calculated.

TNF-α = experiment: ELISA of TNF-α production in LPS-stimulated THP-1 cells; type: cell-based, human; settings: for IC50: LPS-stimulated (10 ng/mL) THP-1 cells, 1, 5, 10, 20 µM, 18 h, read-out: TNF-α IC50; for TNF-α SI (selectivity index, CC50/IC50): THP-1 CC50 / TNF-α IC50
IL-1β = experiment: ELISA of IL-1β production in LPS-stimulated THP-1 cells; type: cell-based, human; settings: 10 µM, compared to LPS (+)-stimulated group
Experimental: (§2) The logarithmic growth phase of THP-1 cells was achieved by seeding in 96-well plates at a density of 5 × 10^4 cells/well and differentiated for 24 h in the presence of PMA (0.5 μM solution in medium). After 24 h of incubation, the culture medium was removed from the 96-well plate and the cells were washed with PBS. Fresh RPMI-1640 medium supplemented with 0.1% FBS and 1% Penicillin–Streptomycin was added to each well and incubated at 37 °C overnight. The cells were pretreated with 17 limonoids at the corresponding concentration for 1 h, followed by the addition of LPS (10 ng/mL) and then incubation at 37 °C for 18 h. Finally, 50 μL of each culture supernatant solution was taken to determine the concentrations of IL-6, MCP-1, and IL-1β using the corresponding commercially available human ELISA kits following the manufacturer’s instructions. The analyte concentration in the supernatant was measured in pg/mL, and the inhibition level was expressed as a fold change compared to the LPS (−) control group. To determine the IC50 value, the dose-response data were normalized to the LPS-stimulated-only group, and the percentage of inhibition was calculated using the following formula: % Inhibition=(Absorbance of LPS+ control−Absorbance of compound treatment with LPS)/(Absorbance of LPS+ control−Absorbance of LPS− control)×100
(§3) Furthermore, the % inhibition data were interpolated into linear equations to determine the IC50 values.

[2] = Cell viability by CCK-8, THP-1 cells; type: cell-based; settings: human, PMA-differentiated THP-1 cells; for CC50 at 18 h: concentration causing 50% cytotoxicity against THP-1 cells
Experimental: as §1
The THP-1 cells at 5 × 10^4 cells/well were differentiated for 24 h in the presence of PMA (0.5 μM solution in medium). After 24 h of incubation, the culture medium was removed from the 96-well plate and the cells were washed with PBS. Fresh RPMI-1640 medium supplemented with 0.1% FBS and 1% penicillin–streptomycin was added to each well and incubated at 37 °C for overnight. The cells were pretreated with 17 limonoids at the corresponding concentration for 1 h followed by the addition of LPS (10 ng/mL) and incubated at 37 °C for 18 h. Furthermore, CCK-8 solution was added to each well with a final concentration was 10% (v/v) and incubated at 37 °C. After 1 h, the absorbance of each well was measured at […] by using a microplate reader (BioTek Cytation 5 Cell Imaging Multimode Reader). Cell viability was calculated using the following formula: % Cell viability=(Absorbance of sample−Absorbance of Background)/(Absorbance of control−Absorbance of Background)×100 where the absorbance of the sample is the absorbance of cells treated by the compound with or without LPS, the absorbance of the control is the absorbance of LPS (−)-treated cells, and the background absorbance is the absorbance of a well containing only the medium. The results were expressed as 100% cell viability.

in vitro = type: cell-based; settings: mouse
Experimental: as §1

IL-6 = experiment: ELISA of IL-6 production in LPS-stimulated THP-1 cells; type: cell-based, human; settings: for IL-6 SI (selectivity index, CC50/IC50): THP-1 CC50 / IL-6 IC50; for IC50: Homo sapiens, THP-1, 18 h, LPS-stimulated (10 ng/mL) THP-1 cells, 1, 5, 10, 20 µM, 18 h
Experimental: as §2, with “Fresh RPMI-1640 medium supplemented with 0.1% FBS and 1% Penicillin–Streptomycin was added to each well and incubated at 37 °C overnight.” left out
as §3

MCP-1 = experiment: ELISA of MCP-1 production in LPS-stimulated THP-1 cells; type: cell-based, human; settings: 10 µM, compared to LPS (+)-stimulated group, THP-1 cells
Experimental: as §2, with “Fresh RPMI-1640 medium supplemented with 0.1% FBS and 1% Penicillin–Streptomycin was added to each well and incubated at 37 °C overnight.” left out
as §3

phosphorylated-p38 MAPK = experiment: Western blotting of phosphorylated-p38 MAPK in LPS-stimulated THP-1 cells; type: cell-based, human; settings: 10 µM, LPS 10 ng/mL, 18 h, compared to LPS (+) group
Experimental: THP-1 cells were seeded at a density of 1 × 10^6 cells/well in 24-well plates. The cells were then pretreated with a concentration of 10 µM of compounds 3, 5, 9, or 15 for 1 h. Subsequently, LPS (10 ng/mL) was added to the cells, which were incubated for 18 h. The protein concentrations were determined using a bicinchoninic acid (BCA) assay kit.
For Western blot analysis, proteins were separated by SDS-PAGE and transferred onto a polyvinylidene fluoride (PVDF) membrane. The membranes were blocked with 2.5% BSA in Tris-buffered saline-Tween (TBST) for 1 h at room temperature. After three washes with TBST, the membranes were incubated with a diluted primary antibody solution (anti-phosphorylated-p38 MAPK or anti-p38 MAPK) at a 1:1000 dilution for 1 h at room temperature. After three washes with TBS-T, the membranes were incubated with a secondary antibody conjugated to horseradish peroxidase (HRP; 1:4000 dilution) for 30 min at room temperature and subsequently detected by chemiluminescence. Finally, the bands were visualized and quantified using an ImageQuant 800 GxP system (Cytiva, MA, USA). The results were expressed as ratios relative to the reference protein β-actin.

[3] = tested on: TNF-α, IL-6, IL-1β, and MCP-1; experiment: ELISA of pro-inflammatory markers overall (TNF-α, IL-6, IL-1β, MCP-1) in LPS-stimulated THP-1 cells; type: cell-based; settings: Homo sapiens, read-out: Overall IC50 values for the evaluated pro-inflammatory markers
Experimental: as §2, §3

[4] = tested on: TLR4-dependent NF-kB activation in HEK-Blue hTLR4 cells; experiment: SEAP reporter gene assay, antagonist effect on LPS-stimulated TLR4-dependent NF-κB activation; type: cell-based, human; settings: 20 µM, LPS 10 ng/mL, 18 h, vs. LPS stimulated-only group
Experimental: The SEAP Reporter Gene Assay was conducted as previously described. HEK-Blue^TM hTLR4 cells (2 × 10^4 cells/well) were seeded in 96-well plates and were serum-starved for 24 h at 37 °C in a 5% carbon dioxide atmosphere. After incubation, the culture medium was aspirated, and the cells were washed with saline. High-glucose D-MEM supplemented with 0.1% FBS and 1% penicillin-streptomycin was added and treated with or without the 17 limonoids at a concentration of 20 µM for 1 h, followed by LPS addition at a concentration of 10 ng/mL for the LPS-stimulated group. After incubation at 37 °C for 18 h, the supernatants were collected and PNPP in PBS solution (0.8 mM, 100 μL) was added, followed by 4 h of shading at 25 °C. The optical density (OD) of the samples was measured at 405 nm using a microplate reader (BioTek Cytation 5 Cell Imaging Multimode Reader, Agilent Technologies, Santa Clara, CA, USA).

[5] = Viability Cell (%) HEK-Blue hTLR4 LPS-Induced (10 ng/mL)
[6] = Viability Cell (%) HEK-Blue hTLR4 Without LPS
[7] = 10 µM, compared to LPS (+)-stimulated group, THP-1 cells
[8] = LPS 10 ng/mL, read-out: Viability Cell (%) THP-1 LPS-Induced (10 ng/mL)
[9] = without LPS, read-out: Viability Cell (%) THP-1 Without LPS

Structure (SMILES)	viability at 18 h, 20 µM [1, 5]	viability at 18 h, 20 µM [1, 6]	Effect on TNF-α level (TNF-α; [7])	IC50 (TNF-α; Homo sapiens, THP-1, 18 h)	IC50 (TNF-α)	TNF-α SI (selectivity index, CC50/IC50) (TNF-α)	Effect on IL-1β level (IL-1β)	viability at 18 h, 10 µM [2, 8]	viability at 18 h, 10 µM [2, 9]	CC50 at 18 h [2]	viability at 5 µM (in vitro)	viability at 10 µM (in vitro)	viability at 20 µM (in vitro)	Effect on IL-6 level (IL-6; [7])	IL-6 SI (selectivity index, CC50/IC50) (IL-6)	Effect on MCP-1 level (MCP-1)	Effect on p-p38 MAPK levels (phosphorylated-p38 MAPK)	IC50 [3]	IC50 (IL-6)	Inhibition of SEAP release (NF-κB activity inhibition) [4]
CC(=O)O[C@@H]1[C@H](O)[C@H]2C(C)(C)C(=O)C=C[C@]2(C)[C@H]2CC[C@]3(C)C(=CC[C@H]3c3ccoc3)[C@]12C [Compound 9, nimonol]	74.8 ± 6.22%	> 99.9%	significantly reduced	< 3 µM	2.15 µM	49.92	significantly reduced	83.9 ± 7.6%	> 99.9%	107 µM	93.8 ± 1.86%	89.9 ± 2.44%	79.4 ± 10.2%	significantly reduced	94.98	significantly reduced	significantly suppressed	< 20 µM		
CC(=O)O[C@@H]1C[C@H]2C(C)(C)C(=O)C=C[C@]2(C)[C@H]2CC[C@]3(C)C(=CC[C@H]3C3CCOC3=O)[C@@]21C (stereo partly shown) [Compound 15, pentandricine B]	84.4 ± 18.7%	> 99.9%		16.4 µM		5.88		> 99.9%	> 99.9%	96.6 µM	92.8 ± 1.79%	91.9 ± 3.59%	90.9 ± 4.95%		13.11		significantly suppressed	< 20 µM	7.37 µM	
CC(=O)O[C@@H]1C[C@H]2C(C)(C)C(=O)C=C[C@]2(C)[C@H]2CC[C@@]3(C)[C@H](c4ccoc4)C[C@H]4O[C@]43[C@@]21C [Compound 13, trichilenone acetate]	> 99.9%	92.4 ± 10.6%						> 99.9%	90.8 ± 3.23%		> 99.9%	> 99.9%	91.9 ± 4.37%							significantly inhibited SEAP release
CC(=O)O[C@@H]1C[C@]2(C)C(=CC[C@H]2c2ccoc2)[C@@]2(C)[C@H]1[C@@]1(C)C=CC(=O)C(C)(C)[C@@H]1C[C@H]2OC(C)=O [Compound 11, 11α-acetoxyazadirone]	9.84 ± 7.34%	52.6 ± 4.74%						> 99.9%	> 99.9%		90.1 ± 7.88%	79 ± 1.58%	78.9 ± 2.21%							significantly inhibited SEAP release
CC1(C)C(=O)C=C[C@]2(C)[C@H]3CC[C@]4(C)C(=CC[C@H]4C4CCOC4=O)[C@]3(C)[C@H](O)C[C@@H]12 (stereo partly shown) [Compound 16, pentandricine C]	> 99.9%	> 99.9%						> 99.9%	90.4 ± 7.6%	110 µM	91.8 ± 3.18%	81.3 ± 7.05%	89.4 ± 7.08%		19.40		significantly suppressed	< 20 µM	5.69 µM	
CC(=O)O[C@H]1[C@@H](OC(C)=O)[C@]2(C)[C@H](CC[C@@]3(C)[C@H](c4ccoc4)C[C@H]4O[C@@]423)[C@@]2(C)C=CC(=O)C(C)(C)[C@H]12 [Compound 4, 6α-(acetoxy)-14β,15β-epoxyazadirone]	> 99.9%	> 99.9%		5.6 µM		6.78		> 99.9%	> 99.9%	38 µM	85 ± 5.66%	85.9 ± 5.34%	82.4 ± 1.15%				significantly suppressed	< 20 µM	1.64 µM	
